Laboratory results: patent publication EP1198477B1, “PROLACTIN-RELEASING PEPTIDE AND USE IN TREATING PAIN” (Oy Juvantia Pharma Ltd, priority 1999, dated 2001)

Tested on: Rats
Test: Blood pressure measurements after i.v. injections
Format: in vivo
Conditions: in the same animals, dose not stated

CNC[C@H](O)c1cccc(O)c1 [phenylephrine]
arterial pressure: clear increase in pressure
